In patent US20160243136A1, “PHARMACEUTICAL FORMULATIONS CONTAINING MITOCHONDRIALLY TARGETED ANTIOXIDANTS” (Mitotech SA, priority 2013, published 2016):
“Also recorded” adds a separate entry of the source.

Key:
[1] = test system: renal tubular cells (RTC); test: In vitro inflammation model: renal tubular cells co-cultivated with bacterial lysate-activated leukocytes; assay type: cell-based, rat; details: for renal cell death (Annexin V-positive): 48 hr exposure to activated leukocytes, pre-incubation with drug; for TNF release in RTC-leukocyte co-culture: activated leukocytes (LC+BL)
Description: Kidneys from 1-3 day old rats were excised under aseptic conditions. The tissue was blended and dissociated by collagenase treatment (0.5%, 30 min at 37° C.). The final suspension was centrifuged for 5 min at 50 g. The pellet was resuspended in about 10 ml of DMEM/F12 (Gibco, USA) supplemented with 10% FCS (Gibco, USA) and kept for 2 min, after which the supernatant was transferred to another tube and the pellet was repeatedly resuspended. After 10 min, the renal tubules were pelleted and dissociated cells remaining in the suspension were discarded. The pellet was resuspended in DMEM/F12 with 10% FCS and seeded onto 24-well plates or onto coverslips placed in 35-mm glass-bottom Petri dishes.
E. coli strain No. 85 was cultured overnight in a cultivation medium containing 1% tryptone, 0.5% yeast extract and 1% NaCl (Sigma-Aldrich, USA). The medium, containing roughly 10^9 colony-forming units (CFU) per ml, was pelleted at 300 g for 3 min. The bacterial lysate was prepared by diluting 30 ml of an overnight (ON) culture and diluting the precipitate in 3 ml of 0.9% NaCl followed by autoclaving for 1.5 hr at 120° C.
5 ml heparinized blood collected from the jugular vein of adult male rats was carefully layered over 5 ml of Ficoll-Urografin (density of 1.077 g/cm^3), and centrifuged for 30 min at 200 g. This procedure results in erythrocyte pelleting, while the mononuclear fraction of leukocytes forms an interphase ring on the Ficoll surface, which was carefully collected. Leukocytes were transferred into another tube and centrifuged for 3 min at 200 g. The resultant pellet was resuspended in 5 ml of DMEM/F12. After cell counting in a hemocytometer, the cells were diluted to a final concentration of about 1×10^5 cells per ml.
In a two-day old renal cell culture, the medium was substituted with DMEM/F12 (400 μl per well, 1600 μl per dish), supplemented with (depending on the purpose): GSK-3β inhibitor LiCl (9 mM) (Sigma-Aldrich, USA), water-soluble antioxidant Trolox (50 μM, 100 μM) (Sigma-Aldrich, USA), MTAs 10-(6-plastoquinonyl)decyl-triphenylphosphonium (SkQ1), synthesized according to Antonenko et al. (2008) Biochemistry (Mosc) 73:1273-87), 10 nM, 100 nM), and 10-(6′-plastoquinonyl) decylrhodamine 19 SkQR1), synthesized according to Antonenko (2008), (1 nM, 10 nM, or 100 nM). Renal cells were incubated for 2 hr in this medium, followed by supplementation with leukocytes or neutrophils in DMEM/F12, or DMEM/F12, alone, in the control sample (400 μl per well, 1600 μl per dish). Simultaneously, the bacterial lysate or lipopolysaccharide (100 ng/ml, LPS, Sigma-Aldrich, USA) solution in DMEM/F12 and DMEM/F12 alone in the control sample (100 μl per well, 400 μl per dish) were added. Renal cells, leukocytes (neutrophils) were co-cultivated for 24 or 48 hr with bacterial lysate or LPS. Cell death (both necrotic and apoptotic) rate was evaluated using Annexin-V FITC Kit (Invitrogen, USA).
(§1) The ROS-sensitive fluorescent probe 2,7-DCF-DA (Molecular Probes, USA) dissolved in DMEM/F12 without bicarbonate (final concentration 10 μM) was added to renal cells (500 μl per well of 24-well plate, 2 ml per dish) and incubated for 15 min at 37° C. followed by a wash with DMEM/F12 without bicarbonate. MDA was determined as in (Mihara and Uchiyama (1978) Anal. Biochem. 86:271-8). Fluorescent probe, DAF-2-DA (Calbiochem, San Diego, Calif., USA) was used for NO determination in living cells. The procedure was the same as for 2,7-DCF-DA. The nitrite/nitrate concentration (as products of NO oxidation) in culture media was determined using Nitrite/Nitrate Assay Kit (Sigma-Aldrich, USA). TNFα was determined using the kit Rat TNFα ELISA Ready-SET-Go (Ebioscience, USA).
Renal cells were imaged with an LSM510 inverted confocal microscope (Carl Zeiss Inc., Jena, Germany) with excitation at 488 nm and emission collected at 500 nm-530 nm with a pinhole diameter of 150 μm. Images were processed using ImageJ software (NIH, Bethesda, Md., USA).

[2] = test system: rat model of APN; test: In vivo rat model of acute pyelonephritis (APN), bacteria introduced in the bladder
Description: An in vivo experimental model of APN was used where bacteria are introduced in the bladder of rat (Gupta et al. (1995) J. Med. Microbiol. 43:33-36). Experiments were performed on outbred white female rats (180-200 g) fed ad libitum. Animal protocols were approved by the Institutional Review Boards. Rats were anesthetized with chloral hydrate (300 mg/kg, intraperitoneally(ip)). The animals were infected intraurethrally using a soft Intramedic non-radio-opaque polyethylene catheter (Clay Adams, USA). The inoculum (5 ml per kg, 1×10^8 CFU/ml of rat fecal bacterial composition) was injected slowly to avoid any leakage […]. Control animals were untreated. The therapeutic protocol of SkQR1 used to treat this pathology was as follows: […], with subsequent injections of the same amount of SkQR1 at 12, 24, 36 and 48 hrs; in total, each animal received 500 nmol SkQR1 per kg. […]
Kidney mitochondria were isolated by homogenization and differential centrifugation in a medium containing 250 mM sucrose, 20 mM HEPES-KOH, 1 mM EGTA and 0.1% BSA, pH7.4. Total mitochondrial protein was determined using a bicinchoninic acid protein assay kit (Sigma-Aldrich, USA). The mitochondria from cultured kidney cells were isolated by the same protocol.
as §1
The kidney was isolated immediately after sacrificing the animal and perfused with ice-cold PBS. It was then fixed in a 10% neutral buffered formalin solution, embedded in paraffin and used for histopathological examination. Five micrometer thick sections were cut, deparaffinized, hydrated, and stained with hematoxylin and eosin. The renal sections were examined in blinded fashion for inflammation and infiltration by leukocytes in the kidneys of all treated animals. A minimum of 10 fields for each kidney slide were examined and scored for pathologic severity.
The manifestation of inflammatory indicators (i.e., a number of infiltrated leukocytes in every layer and the presence of abscesses) under APN was evaluated using the following scale: 0, none; 1, 5-50 leukocytes in the view field; […]; 4, abscesses with pus-necrotic content. The distribution of inflammatory changes (i.e., comparative analysis of infiltration and abscesses) was evaluated by the following criteria: 0, none in any layer; 1, infiltration in the medullar layer; 2, infiltration reaching the cortex.
Kidney homogenates for MPO determination were centrifuged at 20000 g 15 min, the pellets were resuspended in 50 mM K-phosphate buffer containing 0.5% CTAB. Resulted samples were frozen and thawed three times and then centrifuged at 10600 g 10 min. Supernatants were analyzed for MPO activity in chromogenic reaction with o-phenylenediamine (OPD). 100 μl sample was mixed with 100 μl substrate buffer (25 mM Na-citrate, 50 mM Na-phosphate, 0.45 mg/ml OPD, 0.1% H2O2, pH 5.0) and was incubated 15 min at room temperature and then OD was detected at 492 nm.
Samples of kidney homogenates were loaded onto 15% Tris-glycine polyacrylamide gels (10-20 μg of total protein per lane). After electrophoresis, gels were blotted onto PVDF membranes (Amersham Pharmacia Biotech, UK). […]

Q: c1ccc2c(c1)[I+]c1ccccc1-2 [DPI, diphenyleneiodonium, reference compound] was tested. Which “ROS production inside renal cells (DCF fluorescence)” value ([1]; 0.5 μM) did it give?
A: inhibited the ROS production

Q: Which results are given for [Cl-].[Li+] [LiCl, reference compound]?
A: renal cell death (Annexin V-positive) [1]: protected renal cells from death and its effect was more profound than of Trolox; ROS production in renal cells (DCF fluorescence) ([1]; LiCl pre-treatment (9 mM)): had an antioxidative effect; TNF release in RTC-leukocyte co-culture [1]: did not have a significant effect

Q: For CC/N=c1/cc2oc3cc(NCC)c(C)cc3c(-c3ccccc3C(=O)OCCCCCCCCCCC3=CC(=O)C(C)=C(C)C3=O)c-2cc1C [SkQR1, 10-(6′-plastoquinonyl) decylrhodamine 19], which “number of leukocytes in the blood” value ([2]; 3 days after infection, SkQR1) is on record?
A: prevented an elevation

Q: And the “abscesses in kidneys of pyelonephritic rats” value ([2]; SkQR1 100 nmoles/kg ip at 1, 12, 24, 36, 48 hr after bacteria)?
A: significantly less prevalent

Q: What about the “MDA concentration in whole kidney tissue” value ([2]; SkQR1 100 nmoles/kg ip x5) of the same compound?
A: significantly lower

Q: What about the “leukocyte infiltration in all kidney layers and spreading of the inflammatory process” value ([2]; SkQR1 100 nmoles/kg ip x5, histology) of the same compound?
A: inhibited

Q: What about the “kidney tissue concentration of TNFα” value ([2]; SkQR1-treated pyelonephritic rats vs APN rats without SkQR1) of the same compound?
A: lower than in APN rats without SkQR1

Q: And the “activation of pro-inflammatory signaling pathways in peripheral leukocytes” value ([2]; SkQR1-treated rats)?
A: suppressed

Q: And the “other inflammation markers in blood (FIG. 8A-8C)” value ([2]; SkQR1-treated rats)?
A: decreased

Q: What about the animal survival ([2]; SkQR1 during first two days after infection) of the same compound?
A: significantly greater

Q: What about the “Bcl-2 changes in isolated kidney mitochondria (weaker 26 kD band, stronger 15 kD band)” value ([2]; Western blot) of the same compound?
A: diminished

Q: What about the “level of IKB in leukocytes” value ([2]; Western blot, lower in untreated pyelonephritic rats) of the same compound?
A: lower in untreated pyelonephritic rats but not in SkQR1-treated rats

Q: And the “Bcl-2 level in total kidney homogenates” value ([2]; Western blot, lowering seen with pyelonephritis)?
A: absent in pyelonephritic rats receiving SkQR1

Q: And the “expression of toll receptors in different regions of the kidney” value ([2]; activated under APN)?
A: normal expression

Q: And the “tissue activity of myeloperoxidase (MPO), index of neutrophil infiltration” value ([2]; kidney, SkQR1 100 nmoles/kg ip x5)?
A: significantly inhibited

Q: And the “ROS production (DCF fluorescence) in blood leukocytes” value ([2]; leukocytes from pyelonephritic rats receiving SkQR1 vs untreated)?
A: lower than in untreated animals

Q: And the “ROS production in renal cells (DCF fluorescence)” value ([1]; 10 nM, pretreatment 2 hr, co-cultivation with activated leukocytes)?
A: suppression of ROS production after co-cultivation with activated leukocytes to levels close to those observed on controls

Q: And the “renal cell death (Annexin V-positive)” value [1]?
A: more pronounced than that afforded by the traditional water-soluble antioxidant, Trolox; also recorded: highest efficiency

Q: What about the “TNF release in RTC-leukocyte co-culture” value [1] of the same compound?
A: did not have a significant effect

Q: Which results are given for Cc1c(C)c2c(c(C)c1O)CCC(C)(C(=O)O)O2 (centres unmarked) [Trolox, reference compound]?
A: ROS production in renal cells (DCF fluorescence) ([1]; 100 μM, pretreatment 2 hr, co-cultivation with activated leukocytes): suppression of ROS production after co-cultivation with activated leukocytes to levels close to those observed on controls; TNF release in RTC-leukocyte co-culture [1]: did not have a significant effect
